Organism: Rattus norvegicus
Type: toxicity, organism-based, Sprague-Dawley
Conditions: in vivo, po, route oral GAVAGE, […]; for ABSOLUTE EOSINOPHIL / ABSOLUTE LYMPHOCYTE / ABSOLUTE MONOCYTE / ABSOLUTE SEGMENTED NEUTROPHIL / BASOPHIL / EOSINOPHIL / ERYTHROCYTE COUNT / HEMATOCRIT / HEMOGLOBIN / LEUKOCYTE COUNT / LYMPHOCYTE / MEAN CORPUSCULAR HEMOGLOBIN / MEAN CORPUSCULAR HEMOGLOBIN CONCENTRATION / MEAN CORPUSCULAR VOLUME / MONOCYTE / NEUTROPHIL / NUCLEATED RED BLOOD CELLS / PLATELET COUNT: tissue Blood; for ALANINE AMINOTRANSFERASE / ALBUMIN / ALKALINE PHOSPHATASE / ASPARTATE AMINOTRANSFERASE / BLOOD UREA NITROGEN / CARBON DIOXIDE / CHLORIDE / CHOLESTEROL / CREATINE PHOSPHOKINASE / CREATININE / GLUCOSE / LACTATE DEHYDROGENASE / LIPASE / PHOSPHORUS / POTASSIUM / SODIUM / TOTAL BILIRUBIN / TOTAL PROTEIN / URIC ACID: tissue Plasma
[1] = 0 mg/kg, 6 h, vehicle control, dose level Control, time 0.25 day
[2] = 0 mg/kg, 24 h, vehicle control, dose level Control, time 1 day
[3] = 100 mg/kg, 6 h, dose level Low, time 0.25 day
[4] = 100 mg/kg, 24 h, dose level Low, time 1 day

Description: DrugMatrix - Regimen: Single

CC(C)(Oc1ccc(CCNC(=O)c2ccc(Cl)cc2)cc1)C(=O)O [BEZAFIBRATE]
ABSOLUTE EOSINOPHIL [1]: 0 CELLS/uL | ABSOLUTE LYMPHOCYTE [1]: 8631 CELLS/uL | ABSOLUTE MONOCYTE [1]: 171.17 CELLS/uL | ABSOLUTE SEGMENTED NEUTROPHIL [1]: 1214.5 CELLS/uL | BASOPHIL [1]: 0% | EOSINOPHIL [1]: 0% | ERYTHROCYTE COUNT [1]: 5.42 x10E6/uL | HEMATOCRIT [1]: 34.7% | HEMOGLOBIN [1]: 13.67 G/DL | LEUKOCYTE COUNT [1]: 10.02 x10E3/uL | LYMPHOCYTE [1]: 86.17% | MEAN CORPUSCULAR HEMOGLOBIN [1]: 25.27 pg | MEAN CORPUSCULAR HEMOGLOBIN CONCENTRATION [1]: 39.42 G/DL | MEAN CORPUSCULAR VOLUME [1]: 64.12 fL | MONOCYTE [1]: 1.67% | NEUTROPHIL [1]: 12.17% | NUCLEATED RED BLOOD CELLS [1]: 0 /100WBC | PLATELET COUNT [1]: 1050 x10E3/uL | ALANINE AMINOTRANSFERASE [1]: 61 u/L | ALBUMIN [1]: 4.67 G/DL | ALKALINE PHOSPHATASE [1]: 312.5 u/L | ASPARTATE AMINOTRANSFERASE [1]: 117.5 u/L | BLOOD UREA NITROGEN [1]: 8.67 mg/dL | CARBON DIOXIDE [1]: 26.33 mmol/L | CHLORIDE [1]: 100.5 MEQ/L | CHOLESTEROL [1]: 72 mg/dL | CREATINE PHOSPHOKINASE [1]: 283.33 u/L | CREATININE [1]: 0.28 mg/dL | GLUCOSE [1]: 172 mg/dL | LACTATE DEHYDROGENASE [1]: 95.33 u/L | LIPASE [1]: 10.17 u/L | PHOSPHORUS [1]: 9.9 mg/dL | POTASSIUM [1]: 5.75 MEQ/L | SODIUM [1]: 142.4 MEQ/L | TOTAL BILIRUBIN [1]: 0.3 mg/dL | TOTAL PROTEIN [1]: 5.43 G/DL | URIC ACID [1]: 0.73 mg/dL | ABSOLUTE EOSINOPHIL [2]: 90.83 CELLS/uL | ABSOLUTE LYMPHOCYTE [2]: 14725.17 CELLS/uL | ABSOLUTE MONOCYTE [2]: 220 CELLS/uL | ABSOLUTE SEGMENTED NEUTROPHIL [2]: 1080.67 CELLS/uL | BASOPHIL [2]: 0% | EOSINOPHIL [2]: 0.67% | ERYTHROCYTE COUNT [2]: 5.3 x10E6/uL | HEMATOCRIT [2]: 33.4% | HEMOGLOBIN [2]: 13.4 G/DL | LEUKOCYTE COUNT [2]: 16.12 x10E3/uL | LYMPHOCYTE [2]: 91.17% | MEAN CORPUSCULAR HEMOGLOBIN [2]: 25.3 pg | MEAN CORPUSCULAR HEMOGLOBIN CONCENTRATION [2]: 40.12 G/DL | MEAN CORPUSCULAR VOLUME [2]: 63.05 fL | MONOCYTE [2]: 1.5% | NEUTROPHIL [2]: 6.67% | NUCLEATED RED BLOOD CELLS [2]: 0 /100WBC | PLATELET COUNT [2]: 1062 x10E3/uL | ALANINE AMINOTRANSFERASE [2]: 69 u/L | ALBUMIN [2]: 4.33 G/DL | ALKALINE PHOSPHATASE [2]: 269 u/L | ASPARTATE AMINOTRANSFERASE [2]: 83.67 u/L | BLOOD UREA NITROGEN [2]: 14 mg/dL | CARBON DIOXIDE [2]: 29 mmol/L | CHLORIDE [2]: 100.83 MEQ/L | CHOLESTEROL [2]: 66.67 mg/dL | CREATINE PHOSPHOKINASE [2]: 355 u/L | CREATININE [2]: 0.18 mg/dL | GLUCOSE [2]: 161.33 mg/dL | LACTATE DEHYDROGENASE [2]: 123.33 u/L | LIPASE [2]: 10.67 u/L | PHOSPHORUS [2]: 8.83 mg/dL | POTASSIUM [2]: 6.06 MEQ/L | SODIUM [2]: 142.45 MEQ/L | TOTAL BILIRUBIN [2]: 0.2 mg/dL | TOTAL PROTEIN [2]: 5.72 G/DL | URIC ACID [2]: 1.27 mg/dL | ABSOLUTE EOSINOPHIL [3]: 94.83 CELLS/uL | ABSOLUTE LYMPHOCYTE [3]: 14637.67 CELLS/uL | ABSOLUTE MONOCYTE [3]: 333.5 CELLS/uL | ABSOLUTE SEGMENTED NEUTROPHIL [3]: 1884 CELLS/uL | BASOPHIL [3]: 0% | EOSINOPHIL [3]: 0.5% | ERYTHROCYTE COUNT [3]: 5.71 x10E6/uL | HEMATOCRIT [3]: 36.27% | HEMOGLOBIN [3]: 14.22 G/DL | LEUKOCYTE COUNT [3]: 16.95 x10E3/uL | LYMPHOCYTE [3]: 86.67% | MEAN CORPUSCULAR HEMOGLOBIN [3]: 24.97 pg | MEAN CORPUSCULAR HEMOGLOBIN CONCENTRATION [3]: 39.22 G/DL | MEAN CORPUSCULAR VOLUME [3]: 63.68 fL | MONOCYTE [3]: 2% | NEUTROPHIL [3]: 10.83% | NUCLEATED RED BLOOD CELLS [3]: 0 /100WBC | PLATELET COUNT [3]: 1045.83 x10E3/uL | ALANINE AMINOTRANSFERASE [3]: 67.33 u/L | ALBUMIN [3]: 4.53 G/DL | ALKALINE PHOSPHATASE [3]: 339 u/L | ASPARTATE AMINOTRANSFERASE [3]: 90 u/L | BLOOD UREA NITROGEN [3]: 8.17 mg/dL | CARBON DIOXIDE [3]: 18.33 mmol/L | CHLORIDE [3]: 102.17 MEQ/L | CHOLESTEROL [3]: 75.5 mg/dL | CREATINE PHOSPHOKINASE [3]: 329.33 u/L | CREATININE [3]: 0.19 mg/dL | GLUCOSE [3]: 163 mg/dL | LACTATE DEHYDROGENASE [3]: 253 u/L | LIPASE [3]: 10.17 u/L | PHOSPHORUS [3]: 12.57 mg/dL | POTASSIUM [3]: 5.78 MEQ/L | SODIUM [3]: 143.17 MEQ/L | TOTAL BILIRUBIN [3]: 0.32 mg/dL | TOTAL PROTEIN [3]: 6.1 G/DL | URIC ACID [3]: 1.68 mg/dL | ABSOLUTE EOSINOPHIL [4]: 44 CELLS/uL | ABSOLUTE LYMPHOCYTE [4]: 13234.17 CELLS/uL | ABSOLUTE MONOCYTE [4]: 357.67 CELLS/uL | ABSOLUTE SEGMENTED NEUTROPHIL [4]: 1847.5 CELLS/uL | BASOPHIL [4]: 0% | EOSINOPHIL [4]: 0.33% | ERYTHROCYTE COUNT [4]: 5.35 x10E6/uL | HEMATOCRIT [4]: 34.67% | HEMOGLOBIN [4]: 13.47 G/DL | LEUKOCYTE COUNT [4]: 15.48 x10E3/uL | LYMPHOCYTE [4]: 85% | MEAN CORPUSCULAR HEMOGLOBIN [4]: 25.28 pg | MEAN CORPUSCULAR HEMOGLOBIN CONCENTRATION [4]: 38.95 G/DL | MEAN CORPUSCULAR VOLUME [4]: 64.9 fL | MONOCYTE [4]: 2.33% | NEUTROPHIL [4]: 12.33% | NUCLEATED RED BLOOD CELLS [4]: 0.17 /100WBC | PLATELET COUNT [4]: 977.33 x10E3/uL | ALANINE AMINOTRANSFERASE [4]: 83.17 u/L | ALBUMIN [4]: 4.5 G/DL | ALKALINE PHOSPHATASE [4]: 333 u/L | ASPARTATE AMINOTRANSFERASE [4]: 86.33 u/L | BLOOD UREA NITROGEN [4]: 13 mg/dL | CARBON DIOXIDE [4]: 28.83 mmol/L | CHLORIDE [4]: 101.67 MEQ/L | CHOLESTEROL [4]: 43.5 mg/dL | CREATINE PHOSPHOKINASE [4]: 192.33 u/L | CREATININE [4]: 0.21 mg/dL | GLUCOSE [4]: 143.33 mg/dL | LACTATE DEHYDROGENASE [4]: 106.5 u/L | LIPASE [4]: 10.17 u/L | PHOSPHORUS [4]: 9.88 mg/dL | POTASSIUM [4]: 6.29 MEQ/L | SODIUM [4]: 146.55 MEQ/L | TOTAL BILIRUBIN [4]: 0.17 mg/dL | TOTAL PROTEIN [4]: 5.77 G/DL | URIC ACID [4]: 1.02 mg/dL

Reference: ChEMBL document CHEMBL3885881, “DrugMatrix”
